Test results taken from patent US11759430B2, “Active substance carrier comprising biopolymer” (AMOREPACIFIC CORPORATION, priority 2019, dated 2023).

System: stratum corneum of the cultured artificial skin (human epidermal keratinocytes)
Assay: Test Example 2: transdermal penetration of hydrophobic fluorescent dye (Nile red) into artificial skin
Assay type: in vitro ADME
Details: after a night, stratum corneum average thickness 10.73 μm, FIG. 7
Procedure: The following experiment was conducted in order to investigate whether the core-shell network structure according to an exemplary embodiment of the present disclosure serves as a carrier facilitating the transdermal absorption of an active substance.
First, a core-shell network solution (Example 3) was prepared in the same manner as in Example 2 except that, instead of the red ginseng saponin as the active substance, a hydrophobic fluorescent dye (Nile red, Sigma-Aldrich) was encapsulated at a concentration of […]. The contents of zein, pullulan and pectin of Example 3 based on the total weight of the composition were 0.01 wt %, 0.02 wt % and 0.002 wt %, respectively. […]
The cells were exposed to the air by removing the medium except for the part occupied by the cells. […] After freezing using an OCT (Cryomatrix, Thermo Scientific) and slicing to a thickness of 10 μm, the frozen sections were imaged with a fluorescence microscope (BX53, Olympus, Japan) and a microscopic digital camera (DP72, Olympus, Japan). […] To compare the effect of the present disclosure, the stratum corneum of the skin was treated only with a hydrophobic fluorescent dye in Comparative Example 3, and the degree of penetration of the hydrophobic fluorescent dye was analyzed in the same manner.

Question: `CCN(CC)c1ccc2nc3c4ccccc4c(=O)cc-3oc2c1` [Comparative Example 3, Nile red] was tested. Which “penetration depth of the dye into the stratum corneum, on average” value did it give?
Answer: about 3.62 μm
